Biological target: T1, Rab32 (Homo sapiens, UniProt Q13637)
T1 sequence (Q13637 1-225): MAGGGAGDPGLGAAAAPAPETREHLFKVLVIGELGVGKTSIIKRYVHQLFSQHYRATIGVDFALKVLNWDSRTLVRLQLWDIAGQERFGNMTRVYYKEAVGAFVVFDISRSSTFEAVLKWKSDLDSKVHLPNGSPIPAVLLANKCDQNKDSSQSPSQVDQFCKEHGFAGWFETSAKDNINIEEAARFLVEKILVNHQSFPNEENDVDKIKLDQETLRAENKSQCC
Assay: radiolabelled nucleotide dissociation
Assay type: binding
Settings: labelled compound ([3H]GDP); pH 7.5, 50 mM Tris-HCl, high magnesium; GST fusion

With `Nc1nc2c(ncn2[C@@H]2O[C@H](COP(=O)(O)OP(=O)(O)O)[C@@H](O)[C@H]2O)c(=O)[nH]1` [GDP] the “t 1/2 (dissociation)” value was 7.5 min.
